Test results from paper PMC6743422, “Preclinical disposition of MGS0274 besylate, a prodrug of a potent group II metabotropic glutamate receptor agonist MGS0008 for the treatment of schizophrenia” (Pharmacology Research & Perspectives, 2019).

Tests used:
[1] = tested on: monkey cryopreserved hepatocytes; assay: In vitro metabolite profiling in monkey cryopreserved hepatocytes; format: in vitro ADME; settings: monkey hepatocytes
Procedure: (§1) Rat, monkey, or human cryopreserved hepatocytes in Leivovitz L‐15 medium at 0.5 million cells/mL were incubated at 37°C for 1 hour with [^14C]MGS0274 besylate at 10 μmol/L. The reaction was terminated by adding 10% w/v trichloroacetic acid solution, and the resultant mixture was centrifuged. Aliquots of the supernatant were subjected to bioanalysis using high‐performance liquid chromatography equipped with radiochemical flow detection (RI‐HPLC) (see Table S1‐B). Aliquots of the supernatant from unlabeled incubation samples and authentic standards were also injected into a liquid chromatography‐mass spectrometry (LC‐MS) system under the same chromatographic conditions to compare their chromatographic retention times and mass spectral data (see Table S1‐B).

[2] = tested on: human cryopreserved hepatocytes; assay: In vitro metabolite profiling in human cryopreserved hepatocytes; format: in vitro ADME; settings: human hepatocytes
Procedure: as §1

N[C@]1(C(=O)O)[C@H]2[C@@H](C[C@@H]1F)[C@@H]2C(=O)O [MGS0008, (1S,2S,3S,5R,6S)‐2‐amino‐3‐fluorobicyclo[3.1.0]hexane‐2,6‐dicarboxylic acid]
further metabolism of MGS0008 in hepatocytes [1]: no metabolites | further metabolism of MGS0008 in hepatocytes [2]: not metabolized
